Assay results: patent publication EP0918774B9, “ANDROGEN RECEPTOR MODULATOR COMPOUNDS AND METHODS” (LIGAND PHARMACEUTICALS INCORPORATED, priority 1996, dated 1997)
pEC50, pIC50, pKi: −log10 of the molar value. Like-named read-outs stand apart in the source and are kept apart here.

How the values were obtained:
[1] = biological target: T1, PR (Homo sapiens, UniProt P06401); test: Co-transfection assay, PR agonist mode; type: cell-based; parameters: expressed in transfected cells; host or cells: CV-1 cells
T1 sequence (P06401 1-933): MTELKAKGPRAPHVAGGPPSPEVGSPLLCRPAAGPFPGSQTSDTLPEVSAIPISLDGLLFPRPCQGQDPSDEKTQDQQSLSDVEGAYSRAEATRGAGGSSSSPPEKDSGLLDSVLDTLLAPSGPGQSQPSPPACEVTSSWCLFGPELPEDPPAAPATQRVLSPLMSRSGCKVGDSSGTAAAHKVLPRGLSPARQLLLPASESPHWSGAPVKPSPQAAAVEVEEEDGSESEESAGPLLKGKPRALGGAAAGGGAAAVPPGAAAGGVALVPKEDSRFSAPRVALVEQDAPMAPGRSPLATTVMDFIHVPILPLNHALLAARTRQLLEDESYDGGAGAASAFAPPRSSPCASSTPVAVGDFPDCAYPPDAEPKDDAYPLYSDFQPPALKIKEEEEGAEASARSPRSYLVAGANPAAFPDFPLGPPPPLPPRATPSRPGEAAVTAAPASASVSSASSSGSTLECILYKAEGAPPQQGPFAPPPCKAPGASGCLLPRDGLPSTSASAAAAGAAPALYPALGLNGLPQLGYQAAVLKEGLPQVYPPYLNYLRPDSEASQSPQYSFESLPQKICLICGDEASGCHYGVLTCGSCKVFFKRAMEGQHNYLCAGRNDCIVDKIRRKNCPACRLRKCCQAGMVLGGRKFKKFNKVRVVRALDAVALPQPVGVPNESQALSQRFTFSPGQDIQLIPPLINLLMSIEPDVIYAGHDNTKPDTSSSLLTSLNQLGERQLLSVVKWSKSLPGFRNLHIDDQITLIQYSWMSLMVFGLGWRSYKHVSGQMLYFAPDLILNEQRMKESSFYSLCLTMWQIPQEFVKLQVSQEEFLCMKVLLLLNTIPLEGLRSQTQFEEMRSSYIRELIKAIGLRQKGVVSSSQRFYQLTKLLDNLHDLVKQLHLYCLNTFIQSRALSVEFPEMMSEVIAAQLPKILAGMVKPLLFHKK
Experimental: (§1) CV-1 cells (African green monkey kidney fibroblasts) were cultured in the presence of Dulbecco's Modified Eagle Medium (DMEM) supplemented with 10% charcoal resinstripped fetal bovine serum then transferred to 96-well microtiter plates one day prior to transfection.
(§2) Three to four replicates were used for each sample.
(§3) After 40 hours, the cells were washed with PBS, lysed with a Triton X-100-based buffer and assayed for LUC and β-Gal activities using a luminometer or spectrophotometer, respectively. For each replicate, the normalized response (NR) was calculated as: LUC response/β-Gal rate where β-Gal rate = β-Gal•1x10^-5/β-Gal incubation time.

[2] = biological target: T2, ER (Homo sapiens, UniProt P03372); test: Co-transfection assay, ER agonist mode; type: cell-based
T2 construct: expressed in transfected cells; host or cells: CV-1 cells
Experimental: as §1, §2, §3

[3] = biological target: T3, human AR (Homo sapiens, UniProt P10275); test: cell-based; type: binding
T3 construct: expressed in transfected cells; host or cells: CV-1 cells (African green monkey kidney fibroblasts), transient calcium phosphate transfection
T3 sequence (P10275 1-920): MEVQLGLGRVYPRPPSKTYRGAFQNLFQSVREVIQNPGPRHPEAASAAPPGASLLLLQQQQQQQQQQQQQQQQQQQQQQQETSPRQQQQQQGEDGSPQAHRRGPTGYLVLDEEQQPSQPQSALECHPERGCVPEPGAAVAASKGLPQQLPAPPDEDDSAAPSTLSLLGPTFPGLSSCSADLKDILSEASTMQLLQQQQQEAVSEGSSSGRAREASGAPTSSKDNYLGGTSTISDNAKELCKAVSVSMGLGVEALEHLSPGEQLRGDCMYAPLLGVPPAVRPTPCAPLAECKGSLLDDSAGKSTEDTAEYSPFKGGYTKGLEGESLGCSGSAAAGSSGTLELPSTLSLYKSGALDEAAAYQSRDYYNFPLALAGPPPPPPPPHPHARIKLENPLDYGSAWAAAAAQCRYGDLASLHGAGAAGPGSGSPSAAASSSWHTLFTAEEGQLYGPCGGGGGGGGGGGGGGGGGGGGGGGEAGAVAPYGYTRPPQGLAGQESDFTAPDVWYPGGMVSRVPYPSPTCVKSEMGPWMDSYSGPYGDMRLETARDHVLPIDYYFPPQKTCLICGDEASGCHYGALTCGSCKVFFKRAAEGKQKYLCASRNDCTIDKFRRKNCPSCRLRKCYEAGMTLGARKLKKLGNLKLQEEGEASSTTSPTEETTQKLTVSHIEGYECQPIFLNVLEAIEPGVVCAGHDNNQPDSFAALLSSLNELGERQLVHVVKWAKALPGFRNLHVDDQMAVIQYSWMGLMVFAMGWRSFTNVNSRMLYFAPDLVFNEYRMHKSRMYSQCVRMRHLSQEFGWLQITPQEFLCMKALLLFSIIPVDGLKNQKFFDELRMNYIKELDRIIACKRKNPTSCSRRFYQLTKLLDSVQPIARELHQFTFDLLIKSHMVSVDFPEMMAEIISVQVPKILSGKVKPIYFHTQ

[4] = biological target: T3, human AR; test: cell-based; type: cell-based
Description: The co-transfection assay provides a method for identifying functional agonists and partial agonists which mimic, or antagonists which inhibit, the effect of native hormones, and quantifying their activity for responsive IR proteins. In this regard, the co-transfection assay mimics an in vivo system in the laboratory. Importantly, activity in the co-transfection assay correlates very well with known in vivo activity, such that the co-transfection assay functions as a qualitative and quantitative predictor of a tested compounds in vivo pharmacology. See, e.g., T. Berger et al. 41 J. Steroid Biochem. Molec.
as §1
The reporter plasmid, MTV-LUC, contains the cDNA for firefly luciferase (LUC) under control of the mouse mammary tumor virus (MTV) long terminal repeat, a conditional promoter containing an androgen response element. See e.g, Berger et al. supra. In addition, pRS-β-Gal, coding for constitutive expression of E. colβ-galactosidase (β-Gal), was included as an internal control for evaluation of transfection efficiency and compound toxicity.
as §2, §3

T2 sequence (P03372 whole entry): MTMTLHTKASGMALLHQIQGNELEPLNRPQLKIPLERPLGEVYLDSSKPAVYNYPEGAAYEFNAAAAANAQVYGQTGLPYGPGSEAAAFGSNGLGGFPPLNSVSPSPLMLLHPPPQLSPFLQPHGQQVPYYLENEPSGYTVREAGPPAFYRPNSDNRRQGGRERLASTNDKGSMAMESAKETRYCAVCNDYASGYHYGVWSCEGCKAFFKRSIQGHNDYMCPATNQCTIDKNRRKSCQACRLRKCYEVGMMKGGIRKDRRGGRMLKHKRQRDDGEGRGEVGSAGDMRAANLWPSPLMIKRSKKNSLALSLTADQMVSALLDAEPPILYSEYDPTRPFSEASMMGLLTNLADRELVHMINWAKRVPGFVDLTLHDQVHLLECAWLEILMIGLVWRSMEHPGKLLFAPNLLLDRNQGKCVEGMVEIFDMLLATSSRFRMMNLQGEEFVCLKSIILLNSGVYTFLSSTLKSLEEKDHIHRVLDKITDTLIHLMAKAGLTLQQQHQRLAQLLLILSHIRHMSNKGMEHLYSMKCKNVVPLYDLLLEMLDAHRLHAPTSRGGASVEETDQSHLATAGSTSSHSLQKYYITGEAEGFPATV

SMILES | pEC50 [1] | pEC50 [2] | pKi ([3]; read-out: AR Binding Ki) | AR Agonist CV-1 Cells Efficacy (%) [4] | AR Antagonist CV-1 Cells Efficacy (%) [4] | pEC50 [4] | pIC50 [4] | pEC50 ([4]; read-out: AR Potency Agon) | pKi [3] | AR Antagonist CV-1 Cells Efficacy (%) ([4]; % of maximal inhibition, fixed DHT at EC50, na = not active) | AR Agonist CV-1 Cells Efficacy (%) ([4]; percent maximal response relative to reference agonist DHT, na = not active) | pEC50 ([4]; read-out: AR Potency Agon, Table 2, na = not active)
CC12CCCN1c1cc3nc(O)cc(C(F)(F)F)c3cc1CC2 (racemic) [Compound 101, (R/S)-6,7,7a,11-Tetrahydro-7a-methyl-4-trifluoromethyl-2-pyridono[5,6-g]pyrrolidino[1,2-a]quinoline] | < 5.00 | < 5.00 | 6.77 | na (key: na: not active (i.e. efficacy of <20 and potency of >10,000)) | 80% | < 5.00 | 6.44 | < 5.00 | – | – | – | –
CC12CCCN1c1cc3[nH]c(=O)c(F)c(C(F)(F)F)c3cc1CC2 (racemic) [Compound 102, (R/S)-3-Fluoro-6,7,7a,11-tetrahydro-7a-methyl-4-trifluoromethyl-2-pyridono[5,6-g]pyrrolidino[1,2-a]quinoline] | < 5.00 | < 5.00 | – | – | – | < 5.00 | 7.54 | – | 7.11 | 86% | na (not active (i.e. efficacy of <20 and potency of >10,000)) | < 5.00
